{"source": "patent US6548042B2", "about": "“Bis-phosphonate compounds” (priority 2000, dated 2003)", "test_system": "MT-1 cells", "assay": "Bone lesions to healthy bone ratio in rat inoculated with MT-1 cells (scintigraphy, Bioscope)", "format": "in vivo", "conditions": "15 MBq i.v. seven days after MT-1 inoculation, 24 h", "procedure": "Tumour lesion to healthy bone ratio. A rat weighing 114 g was given a single bolus tail vein injection of 15 MBq (500 μl) of 46a seven days after inoculation with 1×10^6 MT-1 cells. The animal was sacrificed 24 h postinjection. The whole animal was then placed under a gamma camera and images were obtained. The spine was then excised and cut into slices of 10 μm. The slices were molded in Epon and images were obtained with a beta camera.\nA prototype real time autoradiography system (Bioscope 3225, IDEAS, Høvik, Norway) consisting of a double sided multiple strip silicon detector was used to obtain images of bone slices.\nIn order to obtain ratios of bone cancer lesions to healthy bone, the hydroxybisphosphonate 46a was injected into a rat inoculated with MT-1 cells (a human breast cancer cell line, see section 4.2.3.1.) seven days earlier. The animal was sacrified 24 h postinjection and whole body images were obtained by means of scintigraphy. […] The radioactivity distributions in slices of the spine were then measured with a device (Bioscope) for real time autoradiography. The resulting images were automatically aligned by means of an image correlation method (Personal communication Arne Skretting, The Norwegian Radium Hospital, Oslo). Finally, the aligned images were added in layers to reconstruct the whole spine. […] Abnormal uptake was detected in one slice only. […]", "data": [{"smiles": "O=P(O)(O)C(O)(Cc1cccc([131I])c1)P(=O)(O)O", "note": "[46a, 1-hydroxy(m-[^131I and ^125I]-iodophenyl)-ethylidene-1,1-bisphosphonic acid]", "values": [{"measurement": "Bone cancer lesions to healthy bone ratio", "value": "inconclusive"}]}]}
